# Laboratory results published in patent publication US9975911B2, “Antibacterial compounds and biological applications thereof” (LABORATOIRE BIODIM, priority 2012, dated 2018).
# Where two headings read alike, the source gives them in different places.
# Legend:
# [1] = target: GmhA of E. coli (Escherichia coli, UniProt P63224); test: Inhibition of the enzymatic activity of GmhA (luminescent assay); type: biochemical
# Experimental: Inhibition of the Enzymatic Activity of GmhA (Luminescent Assay):
# The assay buffer “AB” contained 50 mM Hepes pH7.5, 1 mM MnCl2, 25 mM KCl, 0.012% Triton-X100, 1 mM dithiothreitol (DTT) and 0.1 μM Myelin basic protein (MBP). The following components were added in a white polystyrene Costar plate up to a final volume of 30 μL: 10 μL inhibitor dissolved in DMSO/water 50/50, and 20 μL GmhA of E. coli in AB. After 30 min of pre-incubation at room temperature, 30 μL of Substrates mix in AB were added in each well to a final volume of 60 μL. This reaction mixture was then composed of 2 nM GmhA, 3 μM sedoheptulose-7-phosphate (Sigma), 3 μM ATP (Sigma) and 50 nM HldE of E. coli in assay buffer. After 30 minutes of incubation at room temperature, 100 μL of the revelation mix were added to a final volume of 160 μL, including the following constituents at the respective final concentrations: 10000 light units/mL luciferase (Sigma), 20 μM D-luciferin (Sigma), 100 μM N-acetylcysteamine (Aldrich). Luminescence intensity was immediately measured on Luminoskan (Thermofisher) and converted into inhibition percentages. For IC50 determinations, the inhibitor was tested at 6 to 10 different concentrations, and the related inhibitions were fitted to a classical Langmuir equilibrium model using XLFIT (IDBS).
# [2] = system: E. coli C7 (018:K1:H7) LPS heptosylation; test: Inhibition of E. coli C7 (018:K1:H7) LPS biosynthesis (LPS gel electrophoresis, Re-LPS band); type: cell-based; settings: read-out: EC50 of E. coli C7 LPS heptosylation inhibition
# Experimental: Inhibition of E. coli C7 (018:K1:H7) LPS Biosynthesis:
# The inner core contains several heptose residues. An inhibitor of the LPS heptosylation pathway should therefore reduce dramatically the size of LPS from full-length to the so-called ‘Re-LPS’ limited to lipid A branched with 2 Kdo residues.
# The effect of heptosylation inhibitors on E. coli LPS was assessed as described below. The compounds to be tested were prepared in deionised water/DMSO (50/50) solutions and added (25 μL) in sterile culture microtubes. The strain used in this study was E. coli C7 (018:K1:H7). The bacteria were isolated on tryptic soy agar (TSA) overnight. Isolated colonies were cultured in 10 mL of Luria-Bertani medium (LB) at 37° C. up to an optical density (OD) of typically 0.15. These exponentially growing bacteria were finally diluted to 5e5 cfu/mL and added in each well (225 μL) for incubation with the compounds at 37° C. for approximately 5 hours, up to an optical density of ≈0.2-0.4. Some test compounds e.g. phospho-sugars required Glucose-6-Phosphate (G6P, from Sigma) to be added in the culture medium in order to activate their active transport into the bacterial cytosol via the phospho-sugar transporter UhpT. This was achieved by adding in the culture tube 2.5 μL of a 10 mM water solution of G6P (100 μM final concentration).
# Bacterial cultures were normalized via OD determination, pelleted and washed with 1 mL Phosphate-Buffer-Saline (PBS). The pellets were then denatured for 10 min at 95-100° C. in 50 μL of Sodium dodecyl sulphate 0.2% (SDS), beta-mercaptoethanol 1%, Glycerol 36%, Tris pH 7.4 30 mM and bromophenol blue 0.001%. Samples were cooled down to room temperature, supplemented with 1.5 μl of proteinase K at 20 mg/mL, incubated for 1 hour at 55° C. and centrifuged for […] at 13,000 rpm at 25° C. The resulting supernatant, containing LPS, was finally analysed by SDS-PAGE electrophoresis.
# LPS SDS-PAGE Electrophoresis:
# Polyacrylamide gels (16%/4% acrylamide for separation and concentration respectively) were prepared, loaded with 8 μL of LPS extracts and migrated.
# Gels were incubated overnight in 5% acetic acid/40% ethanol/deionised water, treated by 1% periodic acid/5% acetic acid for 15 min, washed 4 times for 10 min in deionised water and finally incubated for 18 min in the dark in a silver nitrate solution composed of 56 mL NaOH 0.1N, 4 mL ammoniac 33%, 45 mL AgNO3 5% (Tsai and Frasch) and 195 mL deionised water. Gels were then washed extensively in deionised water for 30 min and incubated for 10-15 min (up to LPS bands apparition) in the revelation mix composed of 300 mL deionised water, 300 μL formaldehyde 36.5% (Fluka) and 100 μL citric acid 2.3M. The revelation was stopped by incubating the gels in acetic acid 10% for 5 min. Gels were finally washed in deionised water, numerized with a Samsung PL51 camera and analysed by ImageJ software. The percentage of inhibition of LPS heptosylation was defined as the relative area of the Re-LPS band compared to the cumulated areas of Re-LPS and Core-LPS bands.
# [3] = system: E. coli C7 (O18:K1:H7); test: Combination with antibiotics on E. coli C7 (MIC of the antibiotics); type: cell-based; settings: in the presence of 100 μM G6P; for MIC of the antibiotic alone: without test compound
# Experimental: Combination with Antibiotics on E. coli C7 (018:K1:H7):
# The compound to be tested was diluted in 50 mM HEPES buffer pH 7.4 from 10 mM stock solution. 5 μL of compound dilution or buffer were distributed in a sterile clear round bottom 96-well polystyrene microplate (Corning). 5 μL of serial 2-fold dilutions of reference antibiotics (Erythromycin (Fluka), Rifampicin (Fluka), or Synercid® (Monarch Pharmaceuticals)) in DMSO were added. An exponentially growing preculture of E. coli C7 (O18:K1:H7) in LB was diluted to 1e4 cfu/mL and supplemented with 100 μM G6P, and 90 μL of this suspension were added to the microplates. After overnight incubation at 37° C., the minimal inhibitory concentration (MIC) of the antibiotics were determined for each test compound concentration, as the lowest antibiotic concentration for which no bacterial pellet is visible without magnification.
# [4] = test compound at concentrations <1 mM
# Chain of GmhA of E. coli (P63224 whole entry): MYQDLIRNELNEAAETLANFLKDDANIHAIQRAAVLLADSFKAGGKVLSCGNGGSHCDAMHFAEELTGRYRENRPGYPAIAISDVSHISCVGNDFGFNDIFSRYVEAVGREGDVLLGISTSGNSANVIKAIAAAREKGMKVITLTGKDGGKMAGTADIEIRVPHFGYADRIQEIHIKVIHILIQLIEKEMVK
smiles,measurement,setting,value
"O=CN(O)C[C@H](O)[C@H](O)[C@H](O)CC(F)P(=O)(O)O (stereo partly drawn) [Example 9, [1-Fluoro-6-(formyl-hydroxy-amino)-(3R,4R,5S)-3,4,5-trihydroxy-hexyl]-phosphonic acid]",IC50,[1]; IC50 GmhA E. coli,15 nM
same,EC50,[2]; Escherichia coli,76 µM
"O=CN(O)C(CO)[C@H](O)[C@H](O)[C@H](O)CCP(=O)(O)O (single isomer, unassigned) [Example 7]",IC50,[1]; read-out: IC50 GmhA E. coli,46 nM
same,EC50,[2]; Escherichia coli,220 µM
"CC[C@H]1OC(=O)[C@H](C)[C@@H](O[C@H]2C[C@@](C)(OC)[C@@H](O)[C@H](C)O2)[C@H](C)[C@@H](O[C@@H]2O[C@H](C)C[C@H](N(C)C)[C@H]2O)[C@](C)(O)C[C@@H](C)C(=O)[C@H](C)[C@@H](O)[C@]1(C)O [erythromycin, Erythromycin, reference compound]",MIC of the antibiotic alone,[3],32 µg/mL
"O=CN(O)C[C@H](O)[C@H](O)[C@H](O)CCP(=O)(O)O [Example 3, [6-(Formyl-hydroxy-amino)-(3R,4R,5S)-3,4,5-trihydroxy-hexyl]-phosphonic acid]",IC50,[1]; IC50 GmhA E. coli,3 nM
same,EC50,[2]; Escherichia coli,18 µM
"CO[C@H]1/C=C/O[C@@]2(C)Oc3c(C)c(O)c4c(O)c(c(/C=N/N5CCN(C)CC5)c(O)c4c3C2=O)NC(=O)/C(C)=C\C=C\[C@H](C)[C@H](O)[C@@H](C)[C@@H](O)[C@@H](C)[C@H](OC(C)=O)[C@@H]1C [rifampicin, Rifampicin, reference compound]",MIC of the antibiotic alone,[3],4 µg/mL
"O=CN(O)C[C@H](O)[C@H](O)[C@H](O)COP(=O)([O-])O.[Na+] [Example 2, N-hydroxy-N-formylamino-1-deoxy-D-ribitol-5-phosphate]",IC50,[1]; read-out: IC50 GmhA E. coli,2.4 nM
same,EC50,[2]; Escherichia coli,18 µM
same,MIC of Synercid in combination with the compound,[3]; [4],8 µg/mL
same,MIC of erythromycin in combination with the compound,[3]; [4],1 µg/mL
same,MIC of rifampicin in combination with the compound,[3]; [4],0.25 µg/mL
same,potentiation of Synercid,[3]; [4],16 fold
same,potentiation of erythromycin,[3]; [4],32 fold
same,potentiation of rifampicin,[3]; [4],16 fold
"O=CN(O)C(CO)[C@H](O)[C@H](O)[C@H](O)CCP(=O)(O)O (single isomer, unassigned) [Example 8]",IC50,[1]; read-out: IC50 GmhA E. coli,27 nM
same,EC50,[2],180 µM
